Measurements published in US6316424A, “Sulfated phosphatidylinositols, their preparation and use of the same” (The Board of Trustees of the University of Illinois, priority 2000, dated 2001).
Where a name gives a salt, the structure may show the parent alone.

Legend:
[1] = system: HIV-1 virus; assay: In vitro anti-HIV activity, XTT/formazan cell viability protection (NCI, method of Gustafson et al.); assay type: cell-based, HIV-1 (human lymphoblastoid cells); conditions: Human immunodeficiency virus 1, 168 h; Table 3; 7 days; PSL values normalized to SPI content
Description: A number of formulations of SPI and PSLs were prepared and their in vitro anti-HIV activity determined by the National Cancer Institute at the National Institutes of Health, Bethesda, Md., using the method of Gustafson et al, J. Nat. Can. Inst., 81(16), 1254-1258 (1989). Varying concentrations of each formulation were mixed with cultured human lymphoblastoid cells, then cocultivated with host cells chronically infected with HIV-1 virus at 37° C. After 7 days, the cell culture is incubated with a mixture of tetrazolium salt XTT and phenazine methylsulfate for 4 hours. […] Formazan absorbs visible light at 450 nm. Therefore, the amount of formazan produced is a direct measurement of cell viability and, consequently, an estimate of the anti-HIV activity of each formulation. Formazan production in normal, uninfected cells is labelled as control.
In particular, the following compositions were assayed for anti-HIV activity. The data and effective concentration (ED50), i.e., the minimum concentration that protects 50% of the cells against infection, of each composition are summarized in FIGS. 5-7 and the results summarized in Table 3. Control values were obtained by incubating lymphoblastoid cells with each formulation in the absence of HIV. […]

[2] = Surface tension / critical micelle concentration (Fisher Scientific Surface Tensiometer); assay type: physicochemical
Description: The surface activity of SPI also was determined. In this test, dilutions of SPI were prepared and the surface tension of each solution measured using a Fisher Scientific Surface Tensiometer. The critical micelle concentration (CMC) of SPI was estimated as the minimum concentration at which the surface tension remains constant. For SPI, the CMC is about 0.10 mg/mL. […] Accordingly, the addition of sulfate groups to PI alters its aqueous behavior, shifting the tendency of the phospholipid from forming vesicles to forming micelles.

## CC(C)Nc1cccnc1N1CCN(C(=O)c2cc3cc(NS(C)(=O)=O)ccc3[nH]2)CC1 [Delaviridine, Delaviridine mesylate, reference compound]
[1]
  EC50: 0.031 µg/mL

## phosphatidylinositol [PI]
[2]
  behavior on addition of water (in words): formation of phosphatidylinositol liposomes
[2]; surface tension measurements, compared with SPI
  surface activity (in words): no similar surface activity
